Test results from patent US12180192B2, “Modulators of THR-β and methods of use thereof” (ALIGOS THERAPEUTICS, INC., priority 2019, dated 2024).

How the values were obtained:
THR beta = molecular target: T1, THR beta (Homo sapiens, UniProt P10828); assay: HEK293T THR beta/RXR luciferase reporter assay (Assay 2); type: cell-based; details: for Emax: HEK-293T, Table 5, Assay 2, THRβ, read-out: Activity category Assay 2 THRβ (Emax); for EC50: THR-beta, HEK293T reporter assay, read-out: Activity category Assay 2 (EC50, THR-beta agonist)
T1 construct: expressed in transfected cells; host or cells: HEK293T (ATCC CRL-3216)
T1 sequence (P10828 1-461): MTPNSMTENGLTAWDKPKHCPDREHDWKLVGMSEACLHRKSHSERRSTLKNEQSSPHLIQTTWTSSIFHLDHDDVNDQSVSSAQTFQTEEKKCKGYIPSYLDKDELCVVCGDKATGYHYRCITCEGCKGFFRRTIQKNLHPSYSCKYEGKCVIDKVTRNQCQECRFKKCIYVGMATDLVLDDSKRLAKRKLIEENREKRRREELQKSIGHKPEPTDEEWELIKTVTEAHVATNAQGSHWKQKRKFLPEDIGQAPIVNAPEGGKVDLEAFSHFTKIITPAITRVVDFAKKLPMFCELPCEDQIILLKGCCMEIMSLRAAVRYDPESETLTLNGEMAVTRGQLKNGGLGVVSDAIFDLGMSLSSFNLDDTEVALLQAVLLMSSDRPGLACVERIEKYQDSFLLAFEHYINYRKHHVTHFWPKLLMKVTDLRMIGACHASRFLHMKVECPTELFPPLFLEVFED
T1 sequence (P19793 1-462 partner): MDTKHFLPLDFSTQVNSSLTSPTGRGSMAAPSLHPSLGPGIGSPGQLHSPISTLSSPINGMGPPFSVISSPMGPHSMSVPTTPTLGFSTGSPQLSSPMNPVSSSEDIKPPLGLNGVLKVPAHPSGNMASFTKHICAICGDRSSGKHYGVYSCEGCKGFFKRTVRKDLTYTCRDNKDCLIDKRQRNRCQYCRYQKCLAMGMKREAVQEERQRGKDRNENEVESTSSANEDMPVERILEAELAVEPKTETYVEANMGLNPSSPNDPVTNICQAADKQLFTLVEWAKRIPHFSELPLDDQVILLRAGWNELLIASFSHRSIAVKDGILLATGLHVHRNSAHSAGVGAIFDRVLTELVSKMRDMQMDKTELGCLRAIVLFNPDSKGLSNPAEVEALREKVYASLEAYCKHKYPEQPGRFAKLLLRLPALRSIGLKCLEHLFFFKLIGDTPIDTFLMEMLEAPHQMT
Outline: (§1)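 Compounds tested as ten-point five-fold dilution series for 18-24 h on transiently transfected HEK293T cells carrying TRE-driven luciferase plus RXR and either THR alpha or beta expression plasmids. Read-out by One-Glo luminescence, expressed as percent agonism relative to negative and positive controls.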

THR alpha = molecular target: T2, THR alpha (Homo sapiens, UniProt P10827); assay: HEK293T THR alpha/RXR luciferase reporter assay (Assay 2); type: cell-based; details: Assay 2; for Emax: HEK-293T, Table 5, THRα, read-out: Activity category Assay 2 THRα (Emax); for EC50: Table 4, THR-alpha, read-out: Activity category Assay 2 (EC50, THR-alpha agonist activity)
T2 construct: expressed in transfected cells; host or cells: HEK293T (ATCC CRL-3216)
T2 sequence (P10827 1-410 isoform P10827-2): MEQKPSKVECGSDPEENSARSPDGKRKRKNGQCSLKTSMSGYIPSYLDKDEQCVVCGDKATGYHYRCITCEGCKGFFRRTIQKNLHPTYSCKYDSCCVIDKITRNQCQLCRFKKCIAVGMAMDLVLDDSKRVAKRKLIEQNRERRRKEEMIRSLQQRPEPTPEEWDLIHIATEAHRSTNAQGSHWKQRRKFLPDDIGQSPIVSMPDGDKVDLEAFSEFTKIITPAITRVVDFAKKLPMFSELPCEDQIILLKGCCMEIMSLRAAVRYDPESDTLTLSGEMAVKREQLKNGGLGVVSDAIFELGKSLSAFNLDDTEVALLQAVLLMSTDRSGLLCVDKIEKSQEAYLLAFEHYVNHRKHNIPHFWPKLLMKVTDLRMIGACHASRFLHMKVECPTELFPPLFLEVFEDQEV
T2 sequence (P19793 1-462 partner): T1 sequence (P19793 1-462 partner)
Outline: as §1

[1] = molecular target: T3, human thyroid receptor beta ligand-binding domain (LBD) (Homo sapiens, UniProt P10828); assay: TR-FRET thyroid receptor beta coactivator assay (THR biochemical assay, Assay 1); details: for EC50: THR-beta, TR-FRET coactivator assay, read-out: Activity category Assay 1 (EC50, THR-beta agonist); for Emax: Table 5, Assay 1, THRβ, read-out: Activity category Assay 1 THRβ (Emax)
T3 construct: purchased Invitrogen
T3 sequence (P10828 217-461 limits assumed): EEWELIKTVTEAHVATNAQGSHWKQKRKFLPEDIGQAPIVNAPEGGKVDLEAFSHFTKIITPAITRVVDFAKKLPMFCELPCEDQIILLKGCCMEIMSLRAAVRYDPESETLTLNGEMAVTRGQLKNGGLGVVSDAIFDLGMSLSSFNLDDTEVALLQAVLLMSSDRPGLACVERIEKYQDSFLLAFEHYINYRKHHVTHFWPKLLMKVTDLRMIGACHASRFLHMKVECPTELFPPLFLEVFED
Outline: (§2)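 Agonist-driven coactivator recruitment measured by TR-FRET: terbium anti-GST antibody (2 nM) bound to GST-LBD of TRβ or TRα (1 nM final, stated for β), with fluorescein SRC2-2 peptide at 200 nM. Compounds at 1% DMSO. Read after 1 h, room temperature, protected from light.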

[2] = molecular target: T4, human thyroid receptor alpha ligand-binding domain (LBD) (Homo sapiens, UniProt P10827); assay: TR-FRET thyroid receptor alpha coactivator assay (THR biochemical assay, Assay 1); details: for EC50: Table 4, THR-alpha, read-out: Activity category Assay 1 (EC50, THR-alpha agonist activity); for Emax: Table 5, THRα, read-out: Activity category Assay 1 THRα (Emax)
T4 construct: purchased Invitrogen
Outline: as §2

| Structure (SMILES) | Emax (THR beta) | EC50 (THR beta) | Emax (THR alpha) | EC50 (THR alpha) | EC50 [1] | Emax [1] | EC50 [2] | Emax [2] |
| --- | --- | --- | --- | --- | --- | --- | --- | --- |
| N#Cc1nn(-c2cc(Cl)c(Oc3ccc4[nH]cc(C5CCCC5)c4c3)c(Cl)c2)c(=O)[nH]c1=O [Compound 5, 2-[3,5-dichloro-4-[(3-cyclopentyl-1H-indol-5-yl)oxy]phenyl]-3,5-dioxo-4H-1,2,4-tri-azine-6-carbonitrile] | > 75% | 250 to 1000 nM | 50 to 75% | 1000 to 10000 nM | < 50 nM | < 50% | > 25000 nM | < 50% |
| Cc1cc(-n2nc(C#N)c(=O)[nH]c2=O)cc(C)c1Cc1ccc2[nH]nc(C(C)C)c2c1 [Compound 57, 2-(4-((3-Isopropyl-1H-indazol-5-yl)methyl)-3,5-dimethylphenyl)-3,5-dioxo-2,3,4,5-tetrahydro-1,2,4-triazine-6-carbonitrile] | > 75% | 50 to 250 nM | > 75% | 250 to 1000 nM | < 50 nM | < 50% | < 50 nM | < 50% |
| O=c1cc(-c2ccc3c(c2)CCCC3)c(Oc2c(Cl)cc(-n3ncc(=O)[nH]c3=O)cc2Cl)n[nH]1 [Compound 91-A, 2-(3,5-dichloro-4-((6-oxo-4-(5,6,7,8-tetrahydronaphthalen-2-yl)-1,6-dihydropyridazin-3-yl)oxy)phenyl)-1,2,4-triazine-3,5(2H,4H)-dione] | 50 to 75% | 50 to 250 nM | < 50% | > 10000 nM | < 50 nM | < 50% | 1000 to 25000 nM | < 50% |
| CC(C)c1cc(Oc2c(Cl)cc(-c3nn(C(F)F)c(=O)[nH]c3=O)cc2Cl)n[nH]c1=O [Compound 28, 6-[3,5-dichloro-4-[(5-isopropyl-6-oxo-1H-pyridazin-3-yl)oxy]phenyl]-2-(difluoromethyl)-4H-1,2,4-triazine-3,5-dione] | > 75% | 250 to 1000 nM | 50 to 75% | 1000 to 10000 nM | 50 to 250 nM | < 50% | 250 to 1000 nM | 50 to 75% |
| CCCCCc1n[nH]c2ccc(Cc3c(C)cc(-n4nc(C#N)c(=O)[nH]c4=O)cc3C)cc12 [Compound 32] | > 75% | 50 to 250 nM | > 75% | 50 to 250 nM | < 50 nM | > 75% | < 50 nM | 50 to 75% |
| N#Cc1nn(-c2cc(Cl)c(Oc3ccc4[nH]cc(C#N)c4c3)c(Cl)c2)c(=O)[nH]c1=O [Compound 17, 5-[2,6-dichloro-4-(6-cyano-3,5-dioxo-4H-1,2,4-triazin-2-yl)phenoxy]-1H-indole-3-carbonitrile] | > 75% | 1000 to 10000 nM | < 50% | > 10000 nM | < 50 nM | < 50% | > 25000 nM | < 50% |
| CC(C)NC(=O)c1c[nH]c2ccc(Oc3c(Cl)cc(-n4nc(C#N)c(=O)[nH]c4=O)cc3Cl)cc12 [Compound 20] | < 50% | > 10000 nM | < 50% | > 10000 nM | > 25000 nM | < 50% | > 25000 nM | < 50% |

Further lines, results first:

| Emax (THR beta) | EC50 (THR beta) | Emax (THR alpha) | EC50 (THR alpha) | EC50 [1] | Emax [1] | EC50 [2] | Emax [2] | Structure (SMILES) |
| --- | --- | --- | --- | --- | --- | --- | --- | --- |
| > 75% | – | 50 to 75% | < 50 nM | < 50 nM | < 50% | < 50 nM | < 50% | Nc1nn(-c2cc(Cl)c(Oc3ccc4c(c3)C3(CCCCC3)C(=O)N4)c(Cl)c2)c(=O)[nH]c1=O [Compound 85] |
| > 75% | < 50 nM | 50 to 75% | < 50 nM | < 50 nM | 50 to 75% | < 50 nM | 50 to 75% | CC(C)c1c[nH]c2ccc(Oc3c(Cl)cc(-n4nc(N)c(=O)[nH]c4=O)cc3Cl)cc12 [Compound 41, 6-amino-2-[3,5-dichloro-4-[(3-isopropyl-1H-indol-5-yl)oxy]phenyl]-4H-1,2,4-triazine-3,5-dione] |
| > 75% | < 50 nM | > 75% | < 50 nM | < 50 nM | 50 to 75% | < 50 nM | < 50% | CC(C)/C=C1\C(=O)Nc2ccc(Oc3c(Cl)cc(-n4nc(N)c(=O)[nH]c4=O)cc3Cl)cc21 [Compound 147, 6-amino-2-[3,5-dichloro-4-[(3Z)-3-(2-methylpropylidene)-2-oxo-indolin-5-yl]oxy-phenyl]-1,2,4-triazine-3,5-dione] |
| < 50% | > 10000 nM | < 50% | > 10000 nM | 1000 to 25000 nM | < 50% | 1000 to 25000 nM | < 50% | Nc1nn(-c2cc(Cl)c(Oc3cc(Cc4ccc(=O)[nH]n4)c(=O)[nH]n3)c(Cl)c2)c(=O)[nH]c1=O [Compound 160, 6-amino-2-[3,5-dichloro-4-([6-oxo-5-[(6-oxo-1H-pyridazin-3-yl)methyl]-1H-pyridazin-3-yl]oxy)phenyl]-4H-1,2,4-triazine-3,5-dione] |
| 50 to 75% | 250 to 1000 nM | 50 to 75% | 1000 to 10000 nM | 50 to 250 nM | < 50% | 250 to 1000 nM | < 50% | Nc1nn(-c2cc(Cl)c(Oc3cc(C4(F)CCCC4)c(=O)[nH]n3)c(Cl)c2)c(=O)[nH]c1=O [Compound 144, 6-amino-2-(3,5-dichloro-4-[[5-(1-fluorocyclopentyl)-6-oxo-1H-pyridazin-3-yl]oxy]phenyl)-4H-1,2,4-triazine-3,5-dione] |
| < 50% | 250 to 1000 nM | < 50% | > 10000 nM | 50 to 250 nM | < 50% | > 25000 nM | < 50% | Nc1nn(-c2cc(Cl)c(Oc3cc(C4Cc5ccccc5C4)c(=O)[nH]n3)c(Cl)c2)c(=O)[nH]c1=O [Compound 155] |
| < 50% | > 10000 nM | < 50% | > 10000 nM | > 25000 nM | < 50% | > 25000 nM | < 50% | Nc1nn(-c2cc(Cl)c(Oc3n[nH]c(=O)cc3-c3ccccc3)c(Cl)c2)c(=O)[nH]c1=O [Compound 63-A, 6-amino-2-(3,5-dichloro-4-((6-oxo-4-phenyl-1,6-dihydropyridazin-3-yl)oxy)phenyl)-1,2,4-triazine-3,5(2H,4H)-dione] |
| < 50% | 250 to 1000 nM | < 50% | > 10000 nM | 50 to 250 nM | < 50% | 250 to 1000 nM | < 50% | Cc1ccc(-c2cc(=O)[nH]nc2Oc2c(Cl)cc(-n3nc(N)c(=O)[nH]c3=O)cc2Cl)cc1C [Compound 113] |
